# Experimental data reported in BindingDB's records for doi:10.7270/Q2F769ZM (The Scripps Research Institute Molecular Screening Center, 2007).
# Structures can show the parent of a compound that is named as a salt.
# Target: Rho-associated protein kinase 2 (Homo sapiens, UniProt O75116)
# Assay: human Rho kinase 2 inhibition – biochemical, Kinase-Glo luminescence, S6 peptide, 1536-well, dose response (AID 644)
# Conditions: not given
# Rho-associated protein kinase 2, sequence (O75116 whole entry): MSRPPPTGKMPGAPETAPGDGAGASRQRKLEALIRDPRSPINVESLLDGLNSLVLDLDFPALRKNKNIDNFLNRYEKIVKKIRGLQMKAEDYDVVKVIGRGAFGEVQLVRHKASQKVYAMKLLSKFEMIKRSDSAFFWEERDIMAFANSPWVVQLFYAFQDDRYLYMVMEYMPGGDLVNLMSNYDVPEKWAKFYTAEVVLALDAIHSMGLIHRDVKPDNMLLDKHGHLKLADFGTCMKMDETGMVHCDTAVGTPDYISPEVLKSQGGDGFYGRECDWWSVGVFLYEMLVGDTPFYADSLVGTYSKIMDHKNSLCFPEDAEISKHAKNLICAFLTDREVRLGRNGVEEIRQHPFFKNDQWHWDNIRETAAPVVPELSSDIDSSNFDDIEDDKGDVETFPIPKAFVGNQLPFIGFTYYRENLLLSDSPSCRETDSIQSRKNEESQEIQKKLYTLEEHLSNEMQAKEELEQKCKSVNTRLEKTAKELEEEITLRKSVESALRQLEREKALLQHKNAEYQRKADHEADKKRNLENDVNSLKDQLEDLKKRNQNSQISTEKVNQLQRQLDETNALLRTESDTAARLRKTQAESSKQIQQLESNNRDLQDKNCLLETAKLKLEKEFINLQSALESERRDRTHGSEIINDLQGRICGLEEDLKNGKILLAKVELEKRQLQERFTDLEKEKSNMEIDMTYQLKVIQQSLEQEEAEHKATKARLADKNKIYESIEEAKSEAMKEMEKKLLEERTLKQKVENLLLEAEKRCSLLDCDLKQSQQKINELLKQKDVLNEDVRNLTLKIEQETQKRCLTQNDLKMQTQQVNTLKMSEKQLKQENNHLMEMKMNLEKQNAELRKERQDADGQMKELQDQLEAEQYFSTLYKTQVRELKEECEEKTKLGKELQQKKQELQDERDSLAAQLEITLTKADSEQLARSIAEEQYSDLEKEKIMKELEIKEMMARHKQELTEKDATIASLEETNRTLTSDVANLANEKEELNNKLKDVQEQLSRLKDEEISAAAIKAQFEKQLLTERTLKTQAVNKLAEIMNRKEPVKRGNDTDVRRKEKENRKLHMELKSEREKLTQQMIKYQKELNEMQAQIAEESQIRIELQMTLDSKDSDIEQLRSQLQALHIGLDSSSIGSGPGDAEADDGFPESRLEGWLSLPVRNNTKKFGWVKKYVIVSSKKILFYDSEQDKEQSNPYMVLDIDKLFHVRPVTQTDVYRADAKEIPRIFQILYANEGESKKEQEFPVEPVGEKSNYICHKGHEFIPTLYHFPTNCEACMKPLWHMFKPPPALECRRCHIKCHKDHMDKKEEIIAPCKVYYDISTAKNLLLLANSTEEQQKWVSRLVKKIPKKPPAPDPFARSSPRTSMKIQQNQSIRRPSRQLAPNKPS
row,SMILES,IC50 [µM]
1,"Cc1cc(C(=O)CN2C(=O)NC3(CCCCC3)C2=O)c(C)n1Cc1ccc2c(c1)OCO2 [3-[2-(2,5-dimethyl-1-piperonyl-pyrrol-3-yl)-2-keto-ethyl]-1,3-diazaspiro[4.5]decane-2,4-quinone]",> 59.6
2,"COC(=O)c1sc2cnccc2c1N [3-amino-2-thieno[2,3-c]pyridinecarboxylic acid methyl ester]",8.3
3,"NC(=O)c1sc2nc3c(c(-c4ccco4)c2c1N)CCC3 [3-amino-4-(2-furyl)-6,7-dihydro-5H-cyclopenta[b]thieno[3,2-e]pyridine-2-carboxamide]",> 59.6
4,"c1cc2c(cc1Nc1nc(-c3ccc4c(c3)OCO4)cs1)OCCO2 [4-(1,3-benzodioxol-5-yl)-N-(2,3-dihydro-1,4-benzodioxin-6-yl)-1,3-thiazol-2-amine]",> 59.6
5,c1nc(N2CCOCC2)c2nc[nH]c2n1 [4-(7H-purin-6-yl)morpholine],7.09
6,"Cc1cccc(N2CCN(C(=O)c3cn(C)c(=O)c4c3c3ccccc3n4C)CC2)c1C [4-[4-(2,3-dimethylphenyl)piperazin-1-yl]carbonyl-2,9-dimethyl-pyrido[3,4-b]indol-1-one]",> 59.6
7,CC(C)CCN1CC(C(=O)N2CCN(c3ccc(F)cc3)CC2)CC1=O (stereo not given) [4-[4-(4-fluorophenyl)piperazin-1-yl]carbonyl-1-(3-methylbutyl)pyrrolidin-2-one],> 59.6
8,"c1ccc(OCCCc2nc(-c3ccncc3)no2)cc1 [4-[5-(3-phenoxypropyl)-1,2,4-oxadiazol-3-yl]pyridine]",> 59.6
9,"Cc1c2ccncc2c(C)c2c1[nH]c1ccccc12 [5,11-dimethyl-2H-pyrido[4,3-b]carbazole]",6.68
10,"Clc1ccccc1-c1nn2c(-c3ccncc3)nnc2s1 [6-(2-chlorophenyl)-3-(4-pyridinyl)[1,2,4]triazolo[3,4-b][1,3,4]thiadiazole]",> 59.6
11,CCOC(=O)C1=C(CSc2nc(-c3ccncc3)ccc2C#N)OC(=N)C(C#N)C1c1cccnc1 (stereo not given) [6-amino-5-cyano-2-[[(3-cyano-6-pyridin-4-yl-2-pyridinyl)thio]methyl]-4-(3-pyridinyl)-4H-pyran-3-carboxylic acid ethyl ester],> 19.9
12,Oc1ncnc2cc(Cl)ccc12 [7-Chloro-quinazolin-4-ol],> 19.9
13,"c1ccc2c(c1)[nH]c1cnccc12 [9H-pyrido[3,4-b]indole]",> 19.9
14,"Cc1cc(N2CCOCC2)c2c(N)c(C)cc(C)c2n1 [(2,6,8-trimethyl-4-morpholino-5-quinolyl)amine]",> 59.6
15,"Cc1onc(-c2ccccc2)c1C(=O)N1CCN(C/C=C/c2ccccc2)CC1 [(5-methyl-3-phenyl-1,2-oxazol-4-yl)-[4-[(E)-3-phenylprop-2-enyl]piperazin-1-yl]methanone;hydrochloride]",> 59.6
16,COC(=O)c1cccc2c1-c1ccccc1C2N=O (stereo not given) [(9Z)-9-hydroximinofluorene-4-carboxylic acid methyl ester],> 19.9
17,"Cc1ccccc1NC(=O)Cn1c(C)nc2ccc(NC(=O)C3CC3)cc2c1=O [Cyclopropanecarboxylic acid [2-methyl-4-oxo-3-(o-tolylcarbamoyl-methyl)-3,4-dihydro-quinazolin-6-yl]-amide]",> 59.6
18,CC(C)[C@H]1C(=O)N2CCC[C@H]2[C@]2(O)O[C@](NC(=O)[C@@H]3C=C4c5cccc6[nH]cc(c56)C[C@H]4N(C)C3)(C(C)C)C(=O)N12 [ERGOCORNINE],> 59.6
19,Cc1[nH]c2ccccc2c1C1=CCNCC1 [MLS000045807],9.63
20,O=NCc1c[nH]c2ccccc12 [MLS000104363],4.81
21,"CCN(CC)CCNC(=O)CCCCn1c(=S)[nH]c2c([nH]c3ccc(OC)cc32)c1=O [N-[2-(diethylamino)ethyl]-5-(8-methoxy-4-oxo-2-thioxo-1,2,4,5-tetrahydro-3H-pyrimido[5,4-b]indol-3-yl)pentanamide]",> 19.9
22,c1cn(CCCNc2ncnc3nc[nH]c23)cn1 [N-[3-(1-imidazolyl)propyl]-7H-purin-6-amine],6.18

# Other lines, results leading:
row,IC50 [µM],SMILES
1,5.72,CCc1cc2c(O)ncnc2s1 [MLS000029626]
2,> 59.6,C(=Nc1nc2ccccc2n1CCN1CCCCC1)c1cccs1 [MLS000038975]
3,> 19.9,CCCCCC(=O)Nc1ccc2oc(-c3ccncc3)nc2c1 [MLS000039066]
4,> 19.9,O=C1NC(=O)c2cc(NC(=O)C3CCCCC3)ccc21 [MLS000062910]
5,> 59.6,Cc1cc(NC(=O)CSc2nc(-c3ccccc3)cs2)no1 [MLS000066259]
6,> 59.6,Cc1cc(=O)n(-c2ccccc2)[nH]1 [MLS000069602]
7,2.3,CC(C)C(NC(=O)C1CCCCC1)C(=O)Nc1ccncc1 (stereo not given) [MLS000090506]
8,> 19.9,Cc1cc(Cl)ccc1OCc1nnc(-c2ccc(O)cc2)[nH]1 [MLS000097369]
9,> 19.9,N#Cc1cccc(NC(=O)CSc2ccccc2)c1 [MLS000099417]
10,7.91,CN(CCO)c1ncnc2nc[nH]c12 [MLS000101269]
11,> 19.9,CCCCC(=O)Nc1ccc2c(c1)C(=O)NC2=O [MLS000103070]
12,1.73,O=C(Nc1ccncc1)C1CCCN(S(=O)(=O)c2cccc3cccnc23)C1 (stereo not given) [MLS000118826]
13,> 59.6,Cn1c(C(=O)N2CCCC(C(=O)N3CCN(C(=O)c4ccco4)CC3)C2)cc2sccc21 (stereo not given) [MLS000119519]
14,> 19.9,C1=C(c2ccccc2)CCN(c2[nH]cnc3ncnc2-3)C1 [SMR000017661]

# Same assay, conditions: inactive by the depositor's call
row,SMILES,IC50 [µM]
1,Cc1ccc(S(=O)(=O)NCCCOC(=O)Nc2ccncc2)cc1 [3-[(4-methylphenyl)sulfonylamino]propyl N-pyridin-4-ylcarbamate],20.6
2,"Cc1ccc(SCc2nc(-c3ccncc3)no2)cc1 [4-(5-{[(4-methylphenyl)thio]methyl}-1,2,4-oxadiazol-3-yl)pyridine]",42.6
3,O=C(CCCOc1ccccc1)Nc1ccncc1 [4-Phenoxy-N-pyridin-4-yl-butyramide],14.2
4,"Cc1ccc2c(c1)c1c3n2CCN(C(=O)Cn2c(-c4ccccc4)noc2=O)C3CCC1 (stereo not given) [4-[2-(8-Methyl-1,2,3a,4,5,6-hexahydro-pyrazino[3,2,1-jk]carbazol-3-yl)-2-oxo-ethyl]-3-phenyl-4H-[1,2,4]oxadiazol-5-one]",18.8
5,"COCCN(CCOC)S(=O)(=O)c1ccc(C(=O)Nc2nc(-c3ccncc3)cs2)cc1 [4-[bis(2-methoxyethyl)sulfamoyl]-N-(4-pyridin-4-yl-1,3-thiazol-2-yl)benzamide]",41.2
6,CCC(=O)Nc1ccc(C(=O)Cn2nc(C(=O)O)c3ccccc3c2=O)cc1 [4-keto-3-[2-keto-2-(4-propionamidophenyl)ethyl]phthalazine-1-carboxylic acid],11
7,CC(=O)c1cc(C#N)c(SCc2ccncc2)nc1C [5-acetyl-6-methyl-2-(4-pyridylmethylthio)nicotinonitrile],12.3
8,O=C(Oc1cccc2c(=O)[nH]ccc12)c1ccccc1 [(1-oxo-2H-isoquinolin-5-yl) benzoate],55.7
9,"O=C(NCc1ccc2c(c1)OCO2)c1ccc2snnc2c1 [Benzo[1,2,3]thiadiazole-5-carboxylic acid (benzo[1,3]dioxol-5-ylmethyl)-amide]",11.6
10,"O=C(Nc1ccc(N2CCOCC2)cc1)Nc1ccc2nc(-c3ccco3)c(-c3ccco3)nc2c1 [N-(2,3-di-2-furyl-6-quinoxalinyl)-N'-[4-(4-morpholinyl)phenyl]urea]",25.6
11,Cc1cccc(Nc2ncnc3[nH]cnc23)c1 [N-(3-methylphenyl)-7H-purin-6-amine],13
12,c1nc(NC2CCCCC2)c2[nH]cnc2n1 [N-cyclohexyl-7H-purin-6-amine],15.3
13,Nc1cccc2cnccc12 [isoquinolin-5-amine],30.1

# Next, values leading:
row,IC50 [µM],SMILES
1,16.3,O=C(c1ccccc1)c1ccc2[nH]cnc2c1 [MLS000034982]
2,18.8,Cc1cc2c(ccc3[nH]onc32)n1 [MLS000038925]
3,445,CCOC1(OCC)N=C(N)C2(C#N)C(c3ccc(NC(C)=O)cc3)C12C#N (stereo not given) [MLS000085499]
4,16.5,COc1ccc(N2CCN(c3ncnc4[nH]cnc34)CC2)cc1 [MLS000101243]
5,31.8,CN(C)c1ccc(-c2ccncc2)cc1 [MLS000105960]
6,16.1,N#Cc1cccc(NC(=O)NCCc2c[nH]c3ccccc23)c1 [SMR000096894]
